Assay results from PubChem BioAssay (NCI).
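Values below derive from 48-hour exposures of cells grown in 96-well plates, with endpoints linearly interpolated between the two concentrations bracketing the appropriate inhibition level. Definition used: TGI = concentration required for complete inhibition of growth.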 Where a SMILES comes first, the peptide text is derived from it. [ ]: non-standard residue; d: D form. The star is where a group is joined. AllylGly = C=CC[CH](N)C(=O)O; Boc = CC(C)(C)OC(=O)*; OtBu = CC(C)(C)O*

Columns and labels:
Assay in all cases: NCI anticancer screen, dose series, 48 h
[1] = tested on: IGROV1 ovarian
[2] = tested on: UACC-257 melanoma
[3] = tested on: SF-295 CNS
[4] = tested on: T-47D breast
[5] = tested on: MALME-3M melanoma
[6] = tested on: TK-10 renal
[7] = tested on: U251 CNS
[8] = tested on: COLO 205 colon
[9] = tested on: HS 578T breast
[10] = tested on: SN12C renal
[11] = tested on: SK-OV-3 ovarian
[12] = tested on: NCI/ADR-RES ovarian
[13] = tested on: HOP-62 NSCLC
[14] = tested on: OVCAR-8 ovarian
[15] = tested on: OVCAR-5 ovarian
[16] = tested on: SNB-75 CNS
[17] = tested on: HOP-92 NSCLC
[18] = tested on: HCT-15 colon
[19] = tested on: BT-549 breast
[20] = tested on: A549 NSCLC

SMILES: CC1(C)C(=O)C(C)(C)C12SSC1(S2)C(C)(C)C(=O)C1(C)C
- TGI [1]: > 100 µM
- TGI [2]: > 100 µM
- TGI [3]: > 100 µM
- TGI [4]: > 100 µM
- TGI [5]: > 100 µM
- TGI [6]: > 100 µM
- TGI [7]: > 100 µM
- TGI [8]: > 100 µM
- TGI [9]: > 100 µM
- TGI [10]: > 100 µM
- TGI [11]: > 100 µM
- TGI [12]: > 100 µM
- TGI [13]: > 100 µM
- TGI [14]: > 100 µM
- TGI [15]: > 100 µM
- TGI [16]: > 100 µM
- TGI [17]: > 100 µM
- TGI [18]: > 100 µM
- TGI [19]: > 100 µM
- TGI [20]: > 100 µM

SMILES: C=CCC(NC(=O)C(CC(=O)OC(C)(C)C)NC(=O)OC(C)(C)C)C(=O)OC (stereo not given) (Boc-Asp(OtBu)-[AllylGly]-OMe; configuration not given here)
- TGI [1]: > 100 µM
- TGI [2]: 58.1 µM
- TGI [3]: > 100 µM
- TGI [4]: > 100 µM
- TGI [5]: 3.04 µM
- TGI [6]: > 100 µM
- TGI [7]: > 63 µM
- TGI [8]: 51.8 µM
- TGI [9]: > 100 µM
- TGI [10]: > 100 µM
- TGI [11]: > 100 µM
- TGI [12]: > 100 µM
- TGI [13]: > 100 µM
- TGI [14]: 26.6 µM
- TGI [15]: > 100 µM
- TGI [16]: > 100 µM
- TGI [17]: > 100 µM
- TGI [18]: > 100 µM
- TGI [19]: > 100 µM
- TGI [20]: > 100 µM

SMILES: O=c1cc(N2CCOCC2)[nH]c(=O)n1-c1cccc(C(F)(F)F)c1
- TGI [1]: > 100 µM
- TGI [2]: > 100 µM
- TGI [3]: > 100 µM
- TGI [4]: > 100 µM
- TGI [5]: > 100 µM
- TGI [6]: > 100 µM
- TGI [7]: > 100 µM
- TGI [8]: > 100 µM
- TGI [9]: > 100 µM
- TGI [10]: > 100 µM
- TGI [11]: > 100 µM
- TGI [12]: > 100 µM
- TGI [13]: > 100 µM
- TGI [14]: > 100 µM
- TGI [15]: > 100 µM
- TGI [16]: > 100 µM
- TGI [17]: > 100 µM
- TGI [18]: > 100 µM
- TGI [19]: > 100 µM
- TGI [20]: > 100 µM

SMILES: CCNC1(c2cccc(C)c2)OC(C)(C)c2cccc3cccc1c23 (stereo not given)
- TGI [1]: 37.5 µM
- TGI [2]: 37.9 µM
- TGI [3]: 35.2 µM
- TGI [4]: > 100 µM
- TGI [5]: 34.3 µM
- TGI [6]: 38.3 µM
- TGI [7]: 31.4 µM
- TGI [8]: 34 µM
- TGI [9]: 44.3 µM
- TGI [10]: 35.9 µM
- TGI [11]: 37.9 µM
- TGI [12]: 42.6 µM
- TGI [13]: 48.9 µM
- TGI [14]: 36.5 µM
- TGI [15]: 38.1 µM
- TGI [16]: 30 µM
- TGI [17]: 22.4 µM
- TGI [18]: 42.9 µM
- TGI [19]: 37.2 µM
- TGI [20]: 30.9 µM

SMILES: O=C1Nc2cccc(Cl)c2/C1=C\c1c(Cl)nc2sccn12
- TGI [1]: > 100 µM
- TGI [2]: > 100 µM
- TGI [3]: > 100 µM
- TGI [4]: > 100 µM
- TGI [5]: > 100 µM
- TGI [6]: 24.6 µM
- TGI [7]: 21.5 µM
- TGI [8]: > 100 µM
- TGI [9]: 57.5 µM
- TGI [10]: > 100 µM
- TGI [11]: 31 µM
- TGI [12]: > 100 µM
- TGI [13]: 33.8 µM
- TGI [14]: > 100 µM
- TGI [15]: > 100 µM
- TGI [16]: 26.3 µM
- TGI [17]: 46.2 µM
- TGI [18]: > 100 µM
- TGI [19]: 74.9 µM
- TGI [20]: > 100 µM

SMILES: CN(NC(=O)CCCl)C1=NCCN1
- TGI [1]: > 100 µM
- TGI [2]: > 100 µM
- TGI [3]: > 100 µM
- TGI [4]: > 100 µM
- TGI [5]: > 100 µM
- TGI [6]: > 100 µM
- TGI [7]: > 100 µM
- TGI [8]: > 100 µM
- TGI [9]: > 100 µM
- TGI [10]: > 100 µM
- TGI [11]: > 100 µM
- TGI [12]: > 100 µM
- TGI [13]: > 100 µM
- TGI [14]: > 100 µM
- TGI [15]: > 100 µM
- TGI [16]: > 100 µM
- TGI [17]: > 100 µM
- TGI [18]: > 100 µM
- TGI [19]: > 100 µM
- TGI [20]: > 100 µM

SMILES: Cn1c(=O)cc(NCc2ccc(Cl)cc2)[nH]c1=O
- TGI [1]: > 100 µM
- TGI [2]: > 100 µM
- TGI [3]: > 100 µM
- TGI [4]: > 100 µM
- TGI [5]: > 100 µM
- TGI [6]: > 100 µM
- TGI [7]: > 100 µM
- TGI [8]: > 100 µM
- TGI [9]: 61.3 µM
- TGI [10]: > 100 µM
- TGI [11]: > 100 µM
- TGI [12]: > 100 µM
- TGI [13]: 77.4 µM
- TGI [14]: > 100 µM
- TGI [15]: > 100 µM
- TGI [16]: 84.5 µM
- TGI [17]: 45 µM
- TGI [18]: > 100 µM
- TGI [19]: > 100 µM
- TGI [20]: > 100 µM

SMILES: CC(C)(C)N(Cc1ccc2c(c1)OCO2)C(=O)/C=C\S(=O)c1ccccc1 (stereo not given)
- TGI [1]: 13.3 µM
- TGI [2]: 12.5 µM
- TGI [3]: 22.9 µM
- TGI [4]: 14.3 µM
- TGI [5]: 13.9 µM
- TGI [6]: 17 µM
- TGI [7]: 14.9 µM
- TGI [8]: 8.75 µM
- TGI [9]: 6.36 µM
- TGI [10]: 9.03 µM
- TGI [11]: 9.38 µM
- TGI [12]: 10.2 µM
- TGI [13]: 17.7 µM
- TGI [14]: 6.44 µM
- TGI [15]: 25.1 µM
- TGI [16]: 15.1 µM
- TGI [17]: 8.18 µM
- TGI [18]: 13.2 µM
- TGI [19]: 10.3 µM
- TGI [20]: 18.4 µM

SMILES: CC(C)(C)c1ccc(-c2nc3ccc([N+](=O)[O-])cc3c(=O)o2)cc1
- TGI [1]: > 100 µM
- TGI [2]: 81.2 µM
- TGI [3]: 76.4 µM
- TGI [4]: > 100 µM
- TGI [5]: 75 µM
- TGI [6]: > 100 µM
- TGI [7]: 43.4 µM
- TGI [8]: 71.9 µM
- TGI [9]: 80.8 µM
- TGI [10]: > 100 µM
- TGI [11]: 95.7 µM
- TGI [12]: 79.8 µM
- TGI [13]: 60.9 µM
- TGI [14]: 83.9 µM
- TGI [15]: > 100 µM
- TGI [16]: 66.1 µM
- TGI [17]: 55.2 µM
- TGI [18]: 73.4 µM
- TGI [19]: 76.9 µM
- TGI [20]: > 100 µM

SMILES: C[C@H](Nc1c(O)c2c(c(O)c1Cl)C(=O)C=CC2=O)C(=O)Nc1ccc([N+](=O)[O-])cc1
- TGI [1]: 4.22 µM
- TGI [2]: 3.41 µM
- TGI [3]: 7.54 µM
- TGI [4]: > 10 µM
- TGI [5]: 2.41 µM
- TGI [6]: 3.39 µM
- TGI [7]: 6.02 µM
- TGI [8]: 2.97 µM
- TGI [9]: > 10 µM
- TGI [10]: 2.99 µM
- TGI [11]: > 10 µM
- TGI [12]: 5.05 µM
- TGI [13]: 6.74 µM
- TGI [14]: 5.54 µM
- TGI [15]: 3.51 µM
- TGI [16]: > 10 µM
- TGI [17]: 5.16 µM
- TGI [18]: 7.55 µM
- TGI [19]: > 10 µM
- TGI [20]: 3.64 µM

SMILES: O=[N+]([O-])c1ccc(C2=NOC(c3ccccc3F)N2C23CC4CC(CC(C4)C2)C3)cc1 (stereo not given)
- TGI [1]: > 100 µM
- TGI [2]: > 100 µM
- TGI [3]: > 100 µM
- TGI [4]: > 100 µM
- TGI [5]: > 100 µM
- TGI [6]: > 100 µM
- TGI [7]: > 100 µM
- TGI [8]: > 100 µM
- TGI [9]: > 100 µM
- TGI [10]: > 100 µM
- TGI [11]: > 100 µM
- TGI [12]: > 100 µM
- TGI [13]: > 100 µM
- TGI [14]: > 100 µM
- TGI [15]: > 100 µM
- TGI [16]: > 100 µM
- TGI [17]: > 100 µM
- TGI [18]: > 100 µM
- TGI [19]: > 100 µM
- TGI [20]: > 100 µM

SMILES: COc1ccc(/C=C2\C[C@H]3[C@@H]4CCC5=C[C@@H](N6CCCC6)CC[C@]5(C)[C@H]4CC[C@]3(C)[C@H]2O)cc1
- TGI [1]: 20 µM
- TGI [2]: 2.98 µM
- TGI [3]: 5.52 µM
- TGI [4]: 14.1 µM
- TGI [5]: 5.87 µM
- TGI [6]: 7.44 µM
- TGI [7]: 12.5 µM
- TGI [8]: 3.54 µM
- TGI [9]: 8.66 µM
- TGI [10]: 12.3 µM
- TGI [11]: 14.8 µM
- TGI [12]: 16.8 µM
- TGI [13]: 3.74 µM
- TGI [14]: 16.4 µM
- TGI [15]: 20.9 µM
- TGI [16]: 14.5 µM
- TGI [17]: 9.51 µM
- TGI [18]: 5.77 µM
- TGI [19]: 14.1 µM
- TGI [20]: 7.59 µM

SMILES: O=C/C(=C(/Br)I)c1ccccc1
- TGI [1]: 12.3 µM
- TGI [2]: 17.8 µM
- TGI [3]: 13.9 µM
- TGI [4]: 3.85 µM
- TGI [5]: 5.87 µM
- TGI [6]: 20.2 µM
- TGI [7]: 13.7 µM
- TGI [8]: 14.3 µM
- TGI [9]: > 60 µM
- TGI [10]: 3.64 µM
- TGI [11]: 23.2 µM
- TGI [12]: 15.2 µM
- TGI [13]: 29.8 µM
- TGI [14]: 10.6 µM
- TGI [15]: 23.6 µM
- TGI [16]: 18.7 µM
- TGI [17]: 4.64 µM
- TGI [18]: 5.65 µM
- TGI [19]: 4.86 µM
- TGI [20]: 56.2 µM
